In ChEMBL document CHEMBL5543137, “Design and Synthesis of Novel Ultralong-Acting Peptides as EDP-EBP Interaction Inhibitors for Pulmonary Fibrosis Treatment” (J Med Chem, 2024):
Active and inactive are the calls of the source. No cut-off for these calls is given here.

Tests used:
Mus musculus = test: Antifibrotic activity against BLM-induced C57BL/6 mouse pulmonary fibrosis model assessed as improvement in lung condition at 30 mg/kg, po administered for 2 weeks starting from 7 days post BLM induction and measured after 21 days post BLM induction; assay type: functional, organism-based
[1] = Binding affinity to EBP (unknown origin) by ITC method; parameters: species or system Homo sapiens
[2] = Tmax in Sprague-Dawley rat serum at 600 ug/kg, sc administered as single dose measured upto 10 days by LC-MS/MS method; assay type: ADME, organism-based; details: 0.6 mg/kg, dose 600 µg/kg, time < 10 day
[3] = Half-life in Sprague-Dawley rat serum at 600 ug/kg, sc administered as single dose measured upto 10 days by LC-MS/MS method; assay type: ADME, organism-based; details: 0.6 mg/kg, dose 600 µg/kg, time < 10 day

Kd [1]	Tmax [2]	half-life [3]	Molecule	Activity (Mus musculus)
			COC(=O)c1ccc2c(c1)NC(=O)/C2=C(\Nc1ccc(N(C)C(=O)CN2CCN(C)CC2)cc1)c1ccccc1	Active
539 µM	4.98 min	5.88 min	H-VVGSPSAQDEASPL-NH2	
